From patent US9023805B2, “Increasing cancer patient survival time by administration of dithio-containing compounds” (BioNumerik Pharmaceuticals, Inc., priority 2010, dated 2015)
“Also recorded” adds a separate entry of the source.

Legend:
[1] = test system: coupled thioredoxin (TX)/thioredoxin reductase (TXR) system; test: NADPH oxidation, thioredoxin reductase + thioredoxin; format: biochemical, bovine; conditions: for NADPH Oxidation, Thioredoxin Reductase + Thioredoxin: Disulfide 0.5 mM, minimum of triplicate assays
Protocol: (§1) The activity of TXR and TX was determined by following NADPH oxidation at 340 nm according to the previously reported method. See, Luthman, M., and Holmgren, A. Rat liver thioredoxin and thioredoxin reductase: purification and characterization. Biochemistry 21:6628-6633 (1982). A typical assay mixture contained TR buffer (50 mM potassium phosphate, pH 7.0, 1 mM EDTA), […] NADPH, 1.6 μg bovine TX, and one or more of the following: 4.8 μM TXR, 86 μM insulin, and one of the disulfides described herein. All disulfides were added to reactions as 10× solutions in TR buffer. The total volume of each reaction was 0.1 mL. Reactions were initiated by the addition of TX and were incubated at 25° C. for 40 min. The activity was calculated using a 4 min. linear portion of each reaction. Enzyme assays were carried out using either a Molecular Devices SpectraMaxPlus UV plate reader or a Varian Cary 100 UV-visible Spectrophotometer.
Data was then collected and plotted in Microsoft Excel. Error calculations, and graphical representations were performed in Microsoft Excel and Kaleidograph (ver. 3.5). Nonlinear data was graphically rendered using Kaleidograph. ANOVA and other statistical analyses were performed using SAS (ver. 8.2). Unless otherwise noted, significance level was set at 0.05, and error bars represent actual experimental standard deviation.

[2] = molecular target: T1, glutathione reductase (GR) (Homo sapiens, UniProt P00390); test: NADPH oxidation, GR; format: biochemical
T1 sequence (P00390 44-522): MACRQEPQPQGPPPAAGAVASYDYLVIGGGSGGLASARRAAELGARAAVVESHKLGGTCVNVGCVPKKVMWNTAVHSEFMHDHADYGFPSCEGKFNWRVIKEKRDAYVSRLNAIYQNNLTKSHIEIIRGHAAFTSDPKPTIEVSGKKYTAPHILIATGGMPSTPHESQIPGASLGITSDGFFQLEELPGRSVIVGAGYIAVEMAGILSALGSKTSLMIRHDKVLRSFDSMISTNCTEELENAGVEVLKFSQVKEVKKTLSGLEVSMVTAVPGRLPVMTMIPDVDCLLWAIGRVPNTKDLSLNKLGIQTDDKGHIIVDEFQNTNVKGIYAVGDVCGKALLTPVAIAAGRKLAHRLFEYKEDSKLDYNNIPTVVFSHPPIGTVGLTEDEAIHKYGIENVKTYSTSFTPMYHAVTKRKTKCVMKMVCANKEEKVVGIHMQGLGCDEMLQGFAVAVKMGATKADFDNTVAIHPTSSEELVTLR
Protocol: (§2) The Formula (I) compound was utilized at a concentration of 0.5 mM.

[3] = molecular target: T2, coupled glutaredoxin (GRX)/glutathione (GSH)/glutathione reductase (GR) system (Homo sapiens, UniProt P35754); test: NADPH oxidation, GR + GRX + GSH; format: biochemical; conditions: in the presence of reduced glutathione and glutathione reductase
T2 sequence (P35754 2-106 limits assumed): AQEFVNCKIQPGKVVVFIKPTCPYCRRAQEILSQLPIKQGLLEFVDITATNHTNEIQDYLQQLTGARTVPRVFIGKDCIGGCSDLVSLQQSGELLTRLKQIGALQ
Protocol: as §2

[4] = test system: patients with advanced non-small cell lung carcinoma (NSCLC), including the adenocarcinoma sub-type; test: Japan Phase III Clinical Trial; format: in vivo, human
Protocol: (§3) Darbepoetin alfa (200 μg; subcutaneous administration) was administered on day one of the chemotherapy cycle and pegfilgrastim (6 mg subcutaneous administration) was administered on day two of the chemotherapy cycle if the patient's hemoglobin levels were ≦11 g/dL. The aforementioned chemotherapy cycle was repeated every two weeks, for up to a total of six cycles.
Patients admitted into the trial included those patients without previous treatment (excluding surgical treatment, administration of Picibanil into the serous membrane, irradiation of 30% or less hematopoietic bone, or oral chemotherapeutic agents within 3 months of entry in the trial).
The Japan Phase III Clinical Trial was conducted as a double-blind study because peripheral neuropathy is diagnosed based on subjective symptoms evaluated through clinical interviews, lab tests, and the like. Accordingly, evaluations by both physicians and patients are highly important. […] A placebo was used as control since there is no established therapy or drug for preventing peripheral neuropathy. Because the severity of peripheral neuropathy is evaluated based on patient's reports (i.e., subjective symptoms), the Peripheral Neuropathy Questionnaire (PNQ©) was used in primary evaluation. CIPN-20 and NCI-CTC were used in secondary evaluation. The incidence and severity of adverse reactions, time to their onset, etc. and the like, were compared between patients treated with Tavocept™ and those given a placebo using the aforementioned methods.

[5] = test system: patients with advanced, Stage IIIB/IV, non-small cell lung carcinoma (NSCLC), including the adenocarcinoma sub-type; test: U.S. Phase II NSCLC Clinical Trial; format: in vivo, human
Protocol: as §3

[6] = test system: coupled thioredoxin (TX)/thioredoxin reductase (TXR) system; test: TX/TXR catalyzed reduction of the insulin A-B chain disulfide; format: biochemical, bovine
Protocol: as §1

[7] = molecular target: T3, Glutathione-S-Transferase (GST) (Homo sapiens, UniProt P09488); test: GST assay: conjugation of reduced glutathione to 1-chloro-2,4-dinitrobenzene (CDNB); format: biochemical; conditions: read-out: Percent Inhibition
T3 construct: purchased
T3 sequence (P09488 2-218 limits assumed): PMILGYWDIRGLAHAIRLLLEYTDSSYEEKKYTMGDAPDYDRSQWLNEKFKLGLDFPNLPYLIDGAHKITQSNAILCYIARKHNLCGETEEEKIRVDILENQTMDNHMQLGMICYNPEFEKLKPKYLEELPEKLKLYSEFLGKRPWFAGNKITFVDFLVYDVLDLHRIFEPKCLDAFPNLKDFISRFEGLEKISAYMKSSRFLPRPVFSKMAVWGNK
Protocol: An in vitro assay for GST has been developed and reported. See, Meyer, D. J. and Ketterer, B., Purification of soluble human glutathione S-transferases. Methods Enzymol. 252:53-65 (1995). This assay monitors the conjugation of reduced glutathione to 1-chloro-2,4-dinitrobenzene (CDNB), as illustrated in Reaction Scheme II, below.
Reduced thiol forms a conjugate with CDNB (extinction coefficient=9600 M^−1 cm^−1), which is detected at 340 nm. […] A typical 1 mL assay was set up by mixing 500 μl NaHPO4 buffer (200 mM, pH 6.5), 20 μL GSH (50 mM), 20 μL CDNB (50 mM), and 458 μL sterile water. Reactions were incubated at 20° C. in the cuvette holder of the spectrophotometer for approximately 5 min. prior to initiating the assay with the addition of enzyme (ml−1 isotype of GST; activity >100 U/mg). The enzyme stock purchased from the vendor was diluted 1:100 in 200 mM NaHPO4 buffer (pH 6.5), and 2 μL of the diluted enzyme was added to initiate the reaction. The final amount of enzyme added to the assay was typically 0.002 U. Assays were run at 20° C. in 1 mL quartz cuvettes (Hellma Scientific). Slopes were measured in the linear range of the assay (i.e., typically between 5 to 10 min.). […] Final reaction volumes were fixed at 1 mL by adjusting the amount of water added.
a. […]
Raw data was obtained on a Cary 100 spectrophotometer. […] No absorbance values were collected during the process of enzyme addition. […] It was during this time that reaction rates (i.e., slopes of change in absorbance with time) were measured using the Cary 100 software. […] Absorbance and time values during the end phase of the reaction were not used in slope calculations because the reaction was effectively over at this point as the reaction no longer followed the classical Michaelis-Menton model for enzyme kinetics. Completion of the reaction on the Cary software could be detected visually by overlaying a straight line beginning at the addition of enzyme and extending past the end phase of the assay curve. […]

whole cells = test: Whole cell mediated disulfide reduction; format: cell-based; conditions: mesna in combination with cisplatin
[8] = Tavocept™ and chemotherapy vs chemotherapy and placebo
[9] = Grade 3 and Grade 4 treatment-related adverse events, Tavocept™ arm versus non-Tavocept™ arm, FIG. 15

NC(CSSCCS(=O)(=O)O)C(=O)O (centres unmarked) [BNP7766]
substrate (alternative substrate inhibitor) for thioredoxin / the coupled thioredoxin/thioredoxin reductase/NADPH system [1]: substrates | NADPH Oxidation, Thioredoxin Reductase + Thioredoxin [1]: 14.4 ± 0.2 nmol/min/mL

NC(CCSSCCS(=O)(=O)O)C(=O)O (centres unmarked) [BNP7768]
substrate (alternative substrate inhibitor) for thioredoxin / the coupled thioredoxin/thioredoxin reductase/NADPH system [1]: substrates | NADPH Oxidation, Thioredoxin Reductase + Thioredoxin [1]: 8.6 ± 0.06 nmol/min/mL

N[C@@H](CCC(=O)N[C@@H](CSSCCS(=O)(=O)O)C(=O)NCC(=O)O)C(=O)O [BNP7772]
substrate for glutathione reductase [2]: alternative substrate inhibitor | substrate (alternative substrate inhibitor) for thioredoxin / the coupled thioredoxin/thioredoxin reductase/NADPH system [1]: substrates | NADPH Oxidation, Thioredoxin Reductase + Thioredoxin [1]: 14.1 ± 0.1 nmol/min/mL

NC(CCC(=O)NC(CSSCCS(=O)(=O)O)C(=O)O)C(=O)O (centres unmarked) [BNP7774]
substrate (alternative substrate inhibitor) for thioredoxin / the coupled thioredoxin/thioredoxin reductase/NADPH system [1]: substrates | NADPH Oxidation, Thioredoxin Reductase + Thioredoxin [1]: 9.6 ± 0.2 nmol/min/mL

N[C@@H](CSSCCS(=O)(=O)O)C(=O)NCC(=O)O [BNP7776]
substrate (alternative substrate inhibitor) for thioredoxin / the coupled thioredoxin/thioredoxin reductase/NADPH system [1]: substrates | NADPH Oxidation, Thioredoxin Reductase + Thioredoxin [1]: 15.8 ± 0.3 nmol/min/mL

O=S(=O)([O-])CCSSCCS(=O)(=O)[O-].[Na+].[Na+] [Tavocept™, disodium 2,2′-dithio-bis-ethane sulfonate]
substrate-like / alternative substrate inhibitor activity with glutaredoxin (coupled GRX/GSH/GR system) [3]: substrate-like activity | chemotherapy-induced kidney damage [4, 8]: medically-important reductions | chemotherapy-induced vomiting/emesis [4, 8]: medically-important reductions | patients with Grade 3 (severe) decrease in red blood cell ([4]; Tavocept™ arm, FIG. 7): 1 patients | Response Rate, as measured by physicians ([4]; Tavocept™ arm, FIG. 8 "Doctor"): 41.9% | reduction in severe (Grade D or E) peripheral neuropathy (PNQ) ([4]; paclitaxel/Tavocept™/cisplatin vs paclitaxel/saline placebo/cisplatin, FIG. 5, GEE P-Value 0.1565 (FIG. 6)): ~50% | anorexia ([4]; vs placebo regimen, p=0.0029): reductions | fatigue ([4]; vs placebo regimen, p=0.0163): reductions | nausea/vomiting ([4]; vs placebo regimen, p=0.0240): reductions | diarrhea ([4]; vs placebo regimen, p=0.0859): reductions | insomnia ([4]; vs placebo regimen, p=0.1108): reductions | constipation ([4]; vs placebo regimen, p=0.1114): reductions | substrate for glutathione reductase [2]: not a substrate | hazard ratio, adenocarcinoma ([5]; FIG. 14): 0.601 | reduction in dehydration [5, 9]: 50% | reduction in hypomagnesaemia [5, 9]: 100% | reduction in nausea [5, 9]: 38.5% | reduction in vomiting [5, 9]: 71.5% | hazard ratio ([5]; NSCLC, FIG. 12): 0.750 | increase in patient survival, adenocarcinoma ([5]; Tavocept™ arm versus non-Tavocept™ arm, FIG. 14): 6.54 month | increase in patient survival, adenocarcinoma ([5]; Tavocept™ arm versus non-Tavocept™ arm, FIG. 14, listed as Tavocept): ~6.5 month | oxidation of reduced thioredoxin to oxidized thioredoxin [1]: drives the oxidation | substrate (alternative substrate inhibitor) for thioredoxin / the coupled thioredoxin/thioredoxin reductase/NADPH system [1]: substrate; also recorded: most likely a substrate for TX | NADPH Oxidation, Thioredoxin Reductase + Thioredoxin [1]: 13.1 ± 0.2 nmol/min/mL | NADPH oxidation by TXR in the presence of TX ([1]; FIG. 17): concentration-dependent increase | Km ([1]; read-out: Km as substrate for the coupled thioredoxin/thioredoxin reductase system): 72 µM | inhibition of TX/TXR catalyzed reduction of the insulin A-B chain disulfide bond [6]: inhibits | Km ([6]; read-out: Km for inhibition of thioredoxin/thioredoxin reductase catalyzed reduction of the insulin A-B chain disulfide): 3600 µM | inhibition at 1100 µM [7]: 5.6% | inhibition at 3300 µM [7]: 39% | inhibition at 10000 µM [7]: 66.4%

O=S(=O)([O-])CCS.[Na+] [mesna, 2-mercapto ethane sulfonate sodium]
reduction of hydroxyethyldisulfide (GRX substrate) by whole cells (whole cells): enhanced | reduction of α-lipoic acid (TX/TXR substrate) by whole cells (whole cells): enhanced
